Test: recombinant barcode read abundance after kanamycin selection (control-corrected) (log10(CPM+1)); higher = more efficient recombination; sequences stand for … in AGTGCAGAGAAAATCGGCCAGTTTTCTCTGCCTGCAGTCCGCATGCCGT…AGATTTATGCAGCGGACTGCCTTTCTCCCAAAGTGATAAACCGGACAGTATCATGGACCGGTTTTCCCGGTAATCCGTATTTGCAAGGTTGGTTTCACT; site = the 11-nt target
Method in brief: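 For this pooled screen, each oligo contained a promoter, a target, a barcode and the J23119-driven first 104 bases of the bridge RNA. Gibson cloning placed it into a vector supplying the remaining 73 bp and a T7-inducible recombinase, and the pool was co-electroporated into E. coli with a donor plasmid. Recombination efficiency is derived from barcode counts per million at recombinant junctions after averaging and control correction, and is expressed on a log scale as log10(CPM+1), with selection on chloramphenicol/ampicillin/kanamycin plus 0.1 mM IPTG against a chloramphenicol/ampicillin LB agar control.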
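Note: IS621 recombinase and bridge RNA in Escherichia coli cells.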

CCGAATCCTTGGGTTCTAACCTGTTGCCT (site CCGAGTCCTAG)
recombinant barcode read abundance (log10): 0.122

CCGAATCCTTGGGTTCTAACCTGTTGCCT (site CCGATTCCTAG)
recombinant barcode read abundance (log10): 0.199

CCGACTTCTTGGGTTCTAACCTGTTGCCT (site CAGACTTCTAG)
recombinant barcode read abundance (log10): 0.219

CCGACTTCTTGGGTTCTAACCTGTTGCCT (site CCGACTTCTAG)
recombinant barcode read abundance (log10): 0.164

CCGACTTCTTGGGTTCTAACCTGTTGCCT (site CGGACTTCTAG)
recombinant barcode read abundance (log10): 0.244

CCGACTTCTTGGGTTCTAACCTGTTGCCT (site CTGACTTCTAG)
recombinant barcode read abundance (log10): 0.129

CCGAGAGCTTGGGTTCTAACCTGTTGCCT (site CAGAGAGCTAG)
recombinant barcode read abundance (log10): 0.0908

CCGAGAGCTTGGGTTCTAACCTGTTGCCT (site CCGAGAGCTAG)
recombinant barcode read abundance (log10): 0.454

CCGAGAGCTTGGGTTCTAACCTGTTGCCT (site CGGAGAGCTAG)
recombinant barcode read abundance (log10): 0.0785

CCGAGAGCTTGGGTTCTAACCTGTTGCCT (site CTGAGAGCTAG)
recombinant barcode read abundance (log10): 0.0419

CCGCATGCTTGGGTTCTAACCTGTTGCCT (site CCGAATGCTAG)
recombinant barcode read abundance (log10): 0.0372

CCGCATGCTTGGGTTCTAACCTGTTGCCT (site CCGCATGCTAG)
recombinant barcode read abundance (log10): 0.234

CCGCATGCTTGGGTTCTAACCTGTTGCCT (site CCGGATGCTAG)
recombinant barcode read abundance (log10): 0.0172

CCGCATGCTTGGGTTCTAACCTGTTGCCT (site CCGTATGCTAG)
recombinant barcode read abundance (log10): 0.0765

CCGCCTCCTTGGGTTCTAACCTGTTGCAT (site CCGCCTCCTAT)
recombinant barcode read abundance (log10): 0.0412

CCGCCTCCTTGGGTTCTAACCTGTTGCAT (site CGTCCTCCTAT)
recombinant barcode read abundance (log10): 0.26

CCGCGGACTTGGGTTCTAACCTGTTGCTA (site CCGCGGACTTA)
recombinant barcode read abundance (log10): 0.989

CCGCGGACTTGGGTTCTAACCTGTTGCTA (site TAAAACCCTAT)
recombinant barcode read abundance (log10): 0.0107

CCGCGGACTTGGGTTCTAACCTGTTGCTT (site CCGCAGACTAA)
recombinant barcode read abundance (log10): 0.106

CCGCGGACTTGGGTTCTAACCTGTTGCTT (site CCGCGGACTAA)
recombinant barcode read abundance (log10): 0.578

CCGGCCACTTGGGTTCTAACCTGTTGCCT (site CAGGCCACTAG)
recombinant barcode read abundance (log10): 0.359

CCGGCCACTTGGGTTCTAACCTGTTGCCT (site CCGGCCACTAG)
recombinant barcode read abundance (log10): 1.82

CCGGCCACTTGGGTTCTAACCTGTTGCCT (site CGGGCCACTAG)
recombinant barcode read abundance (log10): 0.164

CCGGCCACTTGGGTTCTAACCTGTTGCCT (site CTGGCCACTAG)
recombinant barcode read abundance (log10): 0.155

CCGGGATCTTGGGTTCTAACCTGTTGCCT (site ACGGGATCTAG)
recombinant barcode read abundance (log10): 0.323

CCGGGATCTTGGGTTCTAACCTGTTGCCT (site CCGGGATCTAG)
recombinant barcode read abundance (log10): 1.22

CCGGGATCTTGGGTTCTAACCTGTTGCCT (site GCGGGATCTAG)
recombinant barcode read abundance (log10): 0.161

CCGGGATCTTGGGTTCTAACCTGTTGCCT (site TCGGGATCTAG)
recombinant barcode read abundance (log10): 0.231

CCGGGTACTTGGGTTCTAACCTGTTGCCG (site AGCAACCCTTT)
recombinant barcode read abundance (log10): 0.0127

CCGGGTACTTGGGTTCTAACCTGTTGCCG (site CCGGGTACTCG)
recombinant barcode read abundance (log10): 1.66

CCGGTGACTTGGGTTCTAACCTGTTGCCT (site ACGGTGACTAG)
recombinant barcode read abundance (log10): 0.0889

CCGGTGACTTGGGTTCTAACCTGTTGCCT (site CCGGTGACTAG)
recombinant barcode read abundance (log10): 0.743

CCGGTGACTTGGGTTCTAACCTGTTGCCT (site GCGGTGACTAG)
recombinant barcode read abundance (log10): 0.146

CCGGTGACTTGGGTTCTAACCTGTTGCCT (site TCGGTGACTAG)
recombinant barcode read abundance (log10): 0.0596

CCGGTTGCTTGGGTTCTAACCTGTTGCCT (site CCGGATTCTAG)
recombinant barcode read abundance (log10): 0.0357

CCGGTTGCTTGGGTTCTAACCTGTTGCCT (site CCGGTTGCTAG)
recombinant barcode read abundance (log10): 2.76

CCGTCTACTTGGGTTCTAACCTGTTGCTT (site CCGTCTACTAA)
recombinant barcode read abundance (log10): 0.107

CCGTCTACTTGGGTTCTAACCTGTTGCTT (site CCGTCTACTCA)
recombinant barcode read abundance (log10): 0.457

CCGTCTACTTGGGTTCTAACCTGTTGCTT (site CCGTCTACTGA)
recombinant barcode read abundance (log10): 0.0444

CCGTCTACTTGGGTTCTAACCTGTTGCTT (site CCGTCTACTTA)
recombinant barcode read abundance (log10): 0.201

CCGTGAACTTGGGTTCTAACCTGTTGCCT (site CAGTGAACTAG)
recombinant barcode read abundance (log10): 0.0153

CCGTGAACTTGGGTTCTAACCTGTTGCCT (site CCGTGAACTAG)
recombinant barcode read abundance (log10): 0.275

CCGTGAACTTGGGTTCTAACCTGTTGCCT (site CGGTGAACTAG)
recombinant barcode read abundance (log10): 0.0382

CCGTGAACTTGGGTTCTAACCTGTTGCCT (site CTGTGAACTAG)
recombinant barcode read abundance (log10): 0.163

CCGTGGACTTGGGTTCTAACCTGTTGCCA (site CAGGGGACTTG)
recombinant barcode read abundance (log10): 0.111

CCGTGGACTTGGGTTCTAACCTGTTGCCA (site CCGTGGACTTG)
recombinant barcode read abundance (log10): 0.42

CCTAAACCTTGGGTTCTAACCTGTTGCGT (site CCTAAACCTAC)
recombinant barcode read abundance (log10): 1.63

CCTAAACCTTGGGTTCTAACCTGTTGCGT (site CCTAACCCTAC)
recombinant barcode read abundance (log10): 0.0278

CCTAAACCTTGGGTTCTAACCTGTTGCGT (site CCTAAGCCTAC)
recombinant barcode read abundance (log10): 0.03

CCTAAACCTTGGGTTCTAACCTGTTGCGT (site CCTAATCCTAC)
recombinant barcode read abundance (log10): 0.0605

CCTAACACTTGGGTTCTAACCTGTTGCCT (site ACTAACACTAG)
recombinant barcode read abundance (log10): 0.0635

CCTAACACTTGGGTTCTAACCTGTTGCCT (site CCTAACACTAG)
recombinant barcode read abundance (log10): 0.501

CCTAACACTTGGGTTCTAACCTGTTGCCT (site GCTAACACTAG)
recombinant barcode read abundance (log10): 0.0372

CCTAACACTTGGGTTCTAACCTGTTGCCT (site TCTAACACTAG)
recombinant barcode read abundance (log10): 0.114

CCTACACCTTGGGTTCTAACCTGTTGCCT (site CCTACAACTAG)
recombinant barcode read abundance (log10): 0.0638

CCTACACCTTGGGTTCTAACCTGTTGCCT (site CCTACACCTAG)
recombinant barcode read abundance (log10): 0.928

CCTACACCTTGGGTTCTAACCTGTTGCCT (site CCTACAGCTAG)
recombinant barcode read abundance (log10): 0.0384

CCTACACCTTGGGTTCTAACCTGTTGCCT (site CCTACATCTAG)
recombinant barcode read abundance (log10): 0.52

CCTAGACCTTGGGTTCTAACCTGTTGCCT (site CCTAGAACTAG)
recombinant barcode read abundance (log10): 0.067

CCTAGACCTTGGGTTCTAACCTGTTGCCT (site CCTAGACCTAG)
recombinant barcode read abundance (log10): 0.771

CCTAGACCTTGGGTTCTAACCTGTTGCCT (site CCTAGAGCTAG)
recombinant barcode read abundance (log10): 0.201

CCTAGACCTTGGGTTCTAACCTGTTGCCT (site CCTAGATCTAG)
recombinant barcode read abundance (log10): 0.312

CCTAGCACTTGGGTTCTAACCTGTTGCGA (site CCTAGCACTTC)
recombinant barcode read abundance (log10): 0.939

CCTAGCACTTGGGTTCTAACCTGTTGCGA (site CCTCGCACTTC)
recombinant barcode read abundance (log10): 0.0896

CCTAGCACTTGGGTTCTAACCTGTTGCGA (site CCTGGCACTTC)
recombinant barcode read abundance (log10): 0.0943

CCTAGCACTTGGGTTCTAACCTGTTGCGA (site CCTTGCACTTC)
recombinant barcode read abundance (log10): 0.0494

CCTATAGCTTGGGTTCTAACCTGTTGCTT (site CCTATAGCTAA)
recombinant barcode read abundance (log10): 0.0878

CCTATAGCTTGGGTTCTAACCTGTTGCTT (site GAGTCTACTTG)
recombinant barcode read abundance (log10): 0.0203

CCTCAGGCTTGGGTTCTAACCTGTTGCCT (site CCTCAGGCTAG)
recombinant barcode read abundance (log10): 0.106

CCTCAGGCTTGGGTTCTAACCTGTTGCCT (site CCTCAGGCTCG)
recombinant barcode read abundance (log10): 0.0672

CCTCAGGCTTGGGTTCTAACCTGTTGCCT (site CCTCAGGCTGG)
recombinant barcode read abundance (log10): 0.107

CCTCAGGCTTGGGTTCTAACCTGTTGCCT (site CCTCAGGCTTG)
recombinant barcode read abundance (log10): 0.204

CCTCAGTCTTGGGTTCTAACCTGTTGCTT (site CCTCAATCTAA)
recombinant barcode read abundance (log10): 0.441

CCTCAGTCTTGGGTTCTAACCTGTTGCTT (site CCTCACTCTAA)
recombinant barcode read abundance (log10): 0.0235

CCTCAGTCTTGGGTTCTAACCTGTTGCTT (site CCTCAGTCTAA)
recombinant barcode read abundance (log10): 1.68

CCTCAGTCTTGGGTTCTAACCTGTTGCTT (site CCTCATTCTAA)
recombinant barcode read abundance (log10): 0.122

CCTCGAGCTTGGGTTCTAACCTGTTGCGG (site CCTCGAGCTCC)
recombinant barcode read abundance (log10): 1.86

CCTCGAGCTTGGGTTCTAACCTGTTGCGG (site TCTAGAGCTCC)
recombinant barcode read abundance (log10): 0.184

CCTCGCACTTGGGTTCTAACCTGTTGCGA (site CCTAGCACTTC)
recombinant barcode read abundance (log10): 0.126

CCTCGCACTTGGGTTCTAACCTGTTGCGA (site CCTCGCACTTC)
recombinant barcode read abundance (log10): 0.112

CCTCGCACTTGGGTTCTAACCTGTTGCGA (site CCTGGCACTTC)
recombinant barcode read abundance (log10): 0.0155

CCTCGCACTTGGGTTCTAACCTGTTGCGA (site CCTTGCACTTC)
recombinant barcode read abundance (log10): 0.0861

CCTCGCGCTTGGGTTCTAACCTGTTGCCT (site CCTAACGCTAG)
recombinant barcode read abundance (log10): 0.822

CCTCGCGCTTGGGTTCTAACCTGTTGCCT (site CCTCGCGCTAG)
recombinant barcode read abundance (log10): 0.354

CCTCGGACTTGGGTTCTAACCTGTTGCAT (site CATCGTACTAT)
recombinant barcode read abundance (log10): 0.0825

CCTCGGACTTGGGTTCTAACCTGTTGCAT (site CCTCGGACTAT)
recombinant barcode read abundance (log10): 1.59
